Source: patent publication US11242327B2, “Analgesic compounds” (RECURIUM IP HOLDINGS, LLC, priority 2017, dated 2022)

Assays:
male Sprague-Dawley rats [1] = assay: Osteoarthritis Pain Test (MIA, mechanical hyperalgesia); format: in vivo; details: rat; for joint compression threshold, Day 3, 1 h: Day 3, 1 h post-dosing; for joint compression threshold, Day 3, 2 h: Day 3, 2 h post-dosing; for joint compression threshold, Day 3, 4 h: Day 3, 4 h post-dosing; for joint compression threshold, Day 6, 1 h: Day 6, 1 h post-dosing; for joint compression threshold, Day 6, 2 h: Day 6, 2 h post-dosing; for joint compression threshold, Day 6, 4 h: Day 6, 4 h post-dosing; for joint compression threshold, Day 0, 1 h: Day 0, 1 h post-dosing; for joint compression threshold, Day 0, 2 h: Day 0, 2 h post-dosing; for joint compression threshold, Day 0, 4 h: Day 0, 4 h post-dosing
Experimental: Osteoarthritis pain was induced in non-fasted male Sprague-Dawley rats weighing 150-250 g by injecting 2 mg of monosodium iodoacetate (MIA) into the left knee joint. Mechanical hyperalgesia was measured using a digital Randall-Selitto device (dRS; IITC Life Sciences©; Woodland Hills, Calif.). Animals were allowed to acclimate to the testing room for a minimum of 15 minutes before testing. Animals were placed in a restraint sling that suspended the animal, leaving the hind limbs available for testing. The stimulus was applied to the knee joint by a blunt tip and pressure was applied gradually over approximately 10 seconds. Joint compression threshold values were recorded at the first observed nocifensive behavior (vocalization, struggle, or withdrawal). One reading per joint was taken at each time point, and a maximum stimulus cutoff of 500 grams was used to prevent injury to the animal. Mechanical hyperalgesia was assessed prior to MIA injection, and again 14 days later. After 14 days, test or control articles were administered once daily for 7 days with mechanical hyperalgesia assessed prior to dosing, 1, 2, and 4 hours post-dosing on days 0, 3, and 6. Test compounds were administered orally at concentrations of 3, 10, 30 or 100 mg/kg and celecoxib was administered orally at a concentration of 30 mg/kg. The control group received the vehicle (sterile water). After day 0, groups receiving the 100 mg/kg dose were reduced to a dose of 3 mg/kg. In Table 5, ‘A’ designates ≥375 grams of joint compression, ‘B’ designates ≥325 and <375 grams of joint compression, and ‘C’ designates <325 grams of joint compression.
The results provided in Table 5 are for oral administration in rats.

Opiate κ = Opiate κ (Homo sapiens, UniProt P41145); assay: NSAIDS and Opioid Receptor Test: Opiate κ; format: binding; details: 10 μM
Sequence of Opiate κ (P41145 whole entry): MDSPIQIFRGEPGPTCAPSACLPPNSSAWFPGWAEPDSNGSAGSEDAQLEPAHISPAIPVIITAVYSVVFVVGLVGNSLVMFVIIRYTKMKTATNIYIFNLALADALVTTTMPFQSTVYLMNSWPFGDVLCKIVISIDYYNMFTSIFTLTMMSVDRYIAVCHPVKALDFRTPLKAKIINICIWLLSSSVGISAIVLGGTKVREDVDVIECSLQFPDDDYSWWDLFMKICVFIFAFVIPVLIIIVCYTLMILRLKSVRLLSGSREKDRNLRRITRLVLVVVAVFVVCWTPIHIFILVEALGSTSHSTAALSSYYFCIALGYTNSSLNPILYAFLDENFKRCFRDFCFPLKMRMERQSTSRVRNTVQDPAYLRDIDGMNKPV
Experimental: Compounds were screened as DMSO solutions at 10 μM, 100 μM, or 200 μM and values represent percent inhibition of control-specific binding. […] As NSAID and opioid mechanisms of action are precluded, a person of ordinary skill in the art understands that undesirable side effects associated with inhibition of COX receptors in NSAIDs and activation of opiate receptors in opioids can be avoided by compounds described herein. Furthermore, opioids are known to lose their analgesic potency after to continued administration. (See Benyamin, et al. “Opioid Complications and Side Effects” Pain Physician 11 (2008): S105-S120). As the data indicates compounds described herein have a different mechanism action compared to opioids, a person of ordinary skill in the art would appreciate that compounds described herein would not be expected to lose their analgesic potency like opioids after continued admininistration.

[2] = Bioavailability Test (rat pharmacokinetics); format: in vivo
Experimental: Oral bioavailability of compounds of Formulae (Ie), (Ih), (Ik), and (Ir), or a pharmaceutically acceptable salt of any of the foregoing, were evaluated in fasted male Sprague-Dawley (SD) rats weighing 200-225g. Compounds were dosed at 3 mg/kg (IV) and 30 mg/kg (PO). Unless otherwise noted, compounds were dissolved in 0.9% saline for IV dosing and 100% sterile water for PO dosing. Pharmacokinetic parameters were determined using Phoenix WinNonlin (v7.0). […]

male Sprague-Dawley rats [3] = assay: UVB Inflammatory Pain Test (thermal hyperalgesia); format: in vivo; details: rat, oral; for paw withdrawal latency, 1 h: 1 h after dosing; for paw withdrawal latency, 2 h: 2 h after dosing; for paw withdrawal latency, 4 h: 4 h after dosing
Method in brief: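 Left hind-paw plantar UVB (350 mJoules/cm^2) given on Day −3 to male Sprague-Dawley rats; on Day 0, test compounds dosed orally at 3, 10, 30 or 100 mg/kg, with water vehicle, celecoxib 30 mg/kg and acetaminophen 300 mg/kg. Radiant-heat paw withdrawal latency (mean of 3, 30 s cutoff) measured before dosing and about 1, 2 and 4 h after.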

[4] = oral once daily, 3 mg/kg (group had 100 mg/kg on day 0)
[5] = male, Sprague-Dawley, in vivo, IV 3 mg/kg, 0.9% saline
[6] = male, Sprague-Dawley, in vivo, PO 30 mg/kg, sterile water

Cl.NC12CC(c3nc(C(F)(F)F)cs3)(C1)C2 [Compound 1, 3-(4-(Trifluoromethyl)thiazol-2-yl)bicyclo[1.1.1]pentan-1-amine hydrochloride]
joint compression threshold, Day 3, 1 h (male Sprague-Dawley rats [1]; [4]): A (≥375 grams of joint compression)
joint compression threshold, Day 3, 2 h (male Sprague-Dawley rats [1]; [4]): A (≥375 grams of joint compression)
joint compression threshold, Day 3, 4 h (male Sprague-Dawley rats [1]; [4]): A (≥375 grams of joint compression)
joint compression threshold, Day 6, 1 h (male Sprague-Dawley rats [1]; [4]): A (≥375 grams of joint compression)
joint compression threshold, Day 6, 2 h (male Sprague-Dawley rats [1]; [4]): B (≥325 and <375 grams of joint compression)
joint compression threshold, Day 6, 4 h (male Sprague-Dawley rats [1]; [4]): A (≥375 grams of joint compression)
joint compression threshold, Day 0, 1 h (male Sprague-Dawley rats [1]; oral once daily, 10 mg/kg): B (≥325 and <375 grams of joint compression)
joint compression threshold, Day 0, 2 h (male Sprague-Dawley rats [1]; oral once daily, 10 mg/kg): C (<325 grams of joint compression)
joint compression threshold, Day 0, 4 h (male Sprague-Dawley rats [1]; oral once daily, 10 mg/kg): C (<325 grams of joint compression)
joint compression threshold, Day 3, 1 h (male Sprague-Dawley rats [1]; oral once daily, 10 mg/kg): B (≥325 and <375 grams of joint compression)
joint compression threshold, Day 3, 2 h (male Sprague-Dawley rats [1]; oral once daily, 10 mg/kg): B (≥325 and <375 grams of joint compression)
joint compression threshold, Day 3, 4 h (male Sprague-Dawley rats [1]; oral once daily, 10 mg/kg): B (≥325 and <375 grams of joint compression)
joint compression threshold, Day 6, 1 h (male Sprague-Dawley rats [1]; oral once daily, 10 mg/kg): B (≥325 and <375 grams of joint compression)
joint compression threshold, Day 6, 2 h (male Sprague-Dawley rats [1]; oral once daily, 10 mg/kg): B (≥325 and <375 grams of joint compression)
joint compression threshold, Day 6, 4 h (male Sprague-Dawley rats [1]; oral once daily, 10 mg/kg): B (≥325 and <375 grams of joint compression)
joint compression threshold, Day 0, 1 h (male Sprague-Dawley rats [1]; oral once daily, 30 mg/kg): B (≥325 and <375 grams of joint compression)
joint compression threshold, Day 0, 2 h (male Sprague-Dawley rats [1]; oral once daily, 30 mg/kg): B (≥325 and <375 grams of joint compression)
joint compression threshold, Day 0, 4 h (male Sprague-Dawley rats [1]; oral once daily, 30 mg/kg): B (≥325 and <375 grams of joint compression)
joint compression threshold, Day 3, 1 h (male Sprague-Dawley rats [1]; oral once daily, 30 mg/kg): A (≥375 grams of joint compression)
joint compression threshold, Day 3, 2 h (male Sprague-Dawley rats [1]; oral once daily, 30 mg/kg): A (≥375 grams of joint compression)
joint compression threshold, Day 3, 4 h (male Sprague-Dawley rats [1]; oral once daily, 30 mg/kg): B (≥325 and <375 grams of joint compression)
joint compression threshold, Day 6, 1 h (male Sprague-Dawley rats [1]; oral once daily, 30 mg/kg): A (≥375 grams of joint compression)
joint compression threshold, Day 6, 2 h (male Sprague-Dawley rats [1]; oral once daily, 30 mg/kg): B (≥325 and <375 grams of joint compression)
joint compression threshold, Day 6, 4 h (male Sprague-Dawley rats [1]; oral once daily, 30 mg/kg): B (≥325 and <375 grams of joint compression)
joint compression threshold, Day 0, 1 h (male Sprague-Dawley rats [1]; oral, 100 mg/kg): A (≥375 grams of joint compression)
joint compression threshold, Day 0, 2 h (male Sprague-Dawley rats [1]; oral, 100 mg/kg): A (≥375 grams of joint compression)
joint compression threshold, Day 0, 4 h (male Sprague-Dawley rats [1]; oral, 100 mg/kg): A (≥375 grams of joint compression)
inhibition at 10 µM (Opiate κ): -4%
F ([2]; PO 30 mg/kg vs IV 3 mg/kg): 115%
AUC(0-inf) [2, 5]: 19.2 µM·h
clearance [2, 5]: 11 mL/min/kg
half-life [2, 5]: 3.1 h
Vd ([2]; male, Sprague-Dawley, in vivo, IV 3 mg/kg, 0.9% saline, read-out: Vdss): 1.4 L/kg
AUC(0-inf) [2, 6]: 277 µM·h
Cmax [2, 6]: 49 µM
Tmax [2, 6]: 0.3 h
half-life [2, 6]: 5.6 h
paw withdrawal latency, 1 h (male Sprague-Dawley rats [3]; 3 mg/kg): B (>6 and <8 seconds of paw withdrawal latency)
paw withdrawal latency, 2 h (male Sprague-Dawley rats [3]; 3 mg/kg): B (>6 and <8 seconds of paw withdrawal latency)
paw withdrawal latency, 4 h (male Sprague-Dawley rats [3]; 3 mg/kg): B (>6 and <8 seconds of paw withdrawal latency)
paw withdrawal latency, 1 h (male Sprague-Dawley rats [3]; 10 mg/kg): B (>6 and <8 seconds of paw withdrawal latency)
paw withdrawal latency, 2 h (male Sprague-Dawley rats [3]; 10 mg/kg): B (>6 and <8 seconds of paw withdrawal latency)
paw withdrawal latency, 4 h (male Sprague-Dawley rats [3]; 10 mg/kg): B (>6 and <8 seconds of paw withdrawal latency)
paw withdrawal latency, 1 h (male Sprague-Dawley rats [3]; 30 mg/kg): A (>8 seconds of paw withdrawal latency)
paw withdrawal latency, 2 h (male Sprague-Dawley rats [3]; 30 mg/kg): A (>8 seconds of paw withdrawal latency)
paw withdrawal latency, 4 h (male Sprague-Dawley rats [3]; 30 mg/kg): A (>8 seconds of paw withdrawal latency)
paw withdrawal latency, 1 h (male Sprague-Dawley rats [3]; 100 mg/kg): A (>8 seconds of paw withdrawal latency)
paw withdrawal latency, 2 h (male Sprague-Dawley rats [3]; 100 mg/kg): A (>8 seconds of paw withdrawal latency)
paw withdrawal latency, 4 h (male Sprague-Dawley rats [3]; 100 mg/kg): A (>8 seconds of paw withdrawal latency)
